Reference: patent US20070128217A1 (priority 2003, published 2007)

Legend:
[1] = test system: control sera (pooled serum of ten healthy LUMC hospital workers; commercial negative donor pooled serum from the Dutch bloodbank); assay type: binding, human; design: Binding of Control serum LUMC to linear peptides / Binding of Control serum Blood-bank to linear peptides / Binding of Control serum LUMC to looped peptides / Binding of Control Serum Blood-Bank to Looped peptides / Binding of Control serum LUMC to linear peptides of the protein M of SARS-CoV Urbani / Binding of Control serum Blood-bank to linear peptides of the protein M of SARS-CoV Urbani / Binding of Control serum LUMC to looped peptides of the protein M of SARS-CoV Urbani / Binding of Control Serum Blood-Bank to Looped peptides of the protein M of SARS-CoV Urbani: unit not given here
[2] = test system: antibodies in sera from SARS patients (sera 1a, 1b, 2, 6, 37, 62, London, SARS-yellow, SARS-green); assay type: binding, human; design: Binding of serum 6 to linear peptides of protein X1 of SARS-CoV Urbani / Binding of serum 37 to linear peptides of protein X1 of SARS-CoV Urbani / Binding of serum 6 to looped/cyclic peptide (PEPSCAN-ELISA) / Binding of serum 37 to looped/cyclic peptide (PEPSCAN-ELISA) / Binding of serum 37 to looped/cyclic peptides of protein X1 of SARS-CoV Urbani / Binding of serum 6 to linear peptides of protein X2 / Binding of serum 37 to linear peptides of protein X2 / Binding of serum 37 to looped/cyclic peptides of protein X2 of SARS-CoV Urbani / Binding of serum 6 to linear peptides of protein M of SARS-CoV Urbani / Binding of serum 37 to linear peptides of protein M of SARS-CoV Urbani / Binding of serum 6 to looped/cyclic peptides of protein M of SARS-CoV Urbani / Binding of serum 37 to looped/cyclic peptides of protein M of SARS-CoV Urbani / Binding of serum 6 to linear peptides of protein X3 of SARS-CoV Urbani / Binding of serum 37 to linear peptides of protein X3 of SARS-CoV Urbani / Binding of serum 37 to looped/cyclic peptides of protein X3 of SARS-CoV Urbani / Binding of serum 6 to linear peptides of protein X4 of SARS-CoV Urbani / Binding of serum 37 to linear peptides of protein X4 of SARS-CoV Urbani / Binding of serum 37 to looped/cyclic peptides of protein X4 of SARS-CoV Urbani / Binding of serum 6 to linear peptides of protein X5 of SARS-CoV Urbani / Binding of serum 37 to linear peptides of protein X5 of SARS-CoV Urbani / Binding of serum 37 to looped/cyclic peptides of protein X5 of SARS-CoV Urbani / Binding of serum 6 to linear peptides of protein N of SARS-CoV Urbani / Binding of serum 37 to linear peptides of protein N of SARS-CoV Urbani / Binding of serum 6 to linear peptide (PEPSCAN-ELISA) / Binding of serum 1a to looped/cyclic peptides of protein N of SARS-CoV Urbani / Binding of serum 1b to looped/cyclic peptides of protein N of SARS-CoV Urbani / Binding of serum 2 to looped/cyclic peptides of protein N of SARS-CoV Urbani / Binding of serum 6 to looped/cyclic peptides of protein N of SARS-CoV Urbani / Binding of serum 37 to looped/cyclic peptides of protein N of SARS-CoV Urbani / Binding of serum 62 to looped/cyclic peptides of protein N of SARS-CoV Urbani / Binding of serum London to looped/cyclic peptides of protein N of SARS-CoV Urbani / Binding of serum SARS-green to looped/cyclic peptides of protein N of SARS-CoV Urbani: unit not given here
[3] = test system: rabbit serum obtained by immunizing a rabbit with the SARS-CoV strain Frankfurt 1; assay type: binding; design: Binding of a rabbit serum to linear peptides / Binding of a rabbit serum to looped peptides / Rabbit serum linear peptides / Rabbit serum looped peptides / Binding of a rabbit serum to linear peptides of protein N of SARS-CoV Urbani (Rabbit serum linear peptides) / Binding of a rabbit serum to looped/cyclic peptides of protein N of SARS-CoV Urbani (Rabbit serum looped peptides): unit not given here

Q: For LHSSSLTSLLKTHRM, which “Binding of Control Serum Blood-Bank to Looped peptides” value [1] is on record?
A: 0.4

Q: And the “Binding of Control serum Blood-bank to linear peptides” value [1]?
A: 0.7

Q: What about the “Binding of Control serum LUMC to linear peptides” value [1] of the same sequence?
A: 0.4

Q: And the “Binding of Control serum LUMC to looped peptides” value [1]?
A: 0.4

Q: What about the “Binding of serum 1a to linear peptides of protein X2” value [2] of the same sequence?
A: 0.6

Q: And the “Binding of serum 1a to looped/cyclic peptides of protein X2 of SARS-CoV Urbani” value [2]?
A: 0.4

Q: And the “Binding of serum 1b to linear peptides of protein X2” value [2]?
A: 0.5

Q: What about the “Binding of serum 1b to looped/cyclic peptides of protein X2 of SARS-CoV Urbani” value [2] of the same sequence?
A: 0.4

Q: What about the “Binding of serum 2 to linear peptides of protein X2” value [2] of the same sequence?
A: 0.4

Q: And the “Binding of serum 2 to looped/cyclic peptides of protein X2 of SARS-CoV Urbani” value [2]?
A: 0.3

Q: And the “Binding of serum 6 to linear peptides of protein X2” value [2]?
A: 0.5

Q: What about the “Binding of serum 6 to looped/cyclic peptides of protein X2 of SARS-CoV Urbani” value [2] of the same sequence?
A: 0.2

Q: And the “Binding of serum 37 to linear peptides of protein X2” value [2]?
A: 0.5

Q: What about the “Binding of serum 37 to looped/cyclic peptides of protein X2 of SARS-CoV Urbani” value [2] of the same sequence?
A: 0.3

Q: And the “Binding of serum 62 to linear peptides of protein X2” value [2]?
A: 0.5

Q: And the “Binding of serum 62 to looped/cyclic peptides of protein X2 of SARS-CoV Urbani” value [2]?
A: 0.4

Q: And the “Binding of serum London to linear peptides of protein X2” value [2]?
A: 0.6

Q: And the “Binding of serum London to looped/cyclic peptides of protein X2 of SARS-CoV Urbani” value [2]?
A: 0.2

Q: And the “Binding of serum SARS-green to linear peptides of protein X2” value [2]?
A: 0.6

Q: What about the “Binding of serum SARS-green to looped/cyclic peptides of protein X2 of SARS-CoV Urbani” value [2] of the same sequence?
A: 0.3

Q: And the “Binding of serum SARS-yellow to linear peptides of protein X2” value [2]?
A: 0.6

Q: And the “Binding of serum SARS-yellow to looped/cyclic peptides of protein X2 of SARS-CoV Urbani” value [2]?
A: 0.3

Q: And the “Binding of a rabbit serum to linear peptides” value [3]?
A: 0.2

Q: What about the “Binding of a rabbit serum to looped peptides” value [3] of the same sequence?
A: 0.4

Q: TVATSRTLSYYKLGA was tested. Which “Binding of Control Serum Blood-Bank to Looped peptides of the protein M of SARS-CoV Urbani” value [1] did it give?
A: 0.7

Q: What about the “Binding of Control serum Blood-bank to linear peptides of the protein M of SARS-CoV Urbani” value [1] of the same sequence?
A: 0.8

Q: And the “Binding of Control serum LUMC to linear peptides of the protein M of SARS-CoV Urbani” value [1]?
A: 0.6

Q: What about the “Binding of Control serum LUMC to looped peptides of the protein M of SARS-CoV Urbani” value [1] of the same sequence?
A: 0.7

Q: What about the “Binding of serum 1a to linear peptides of protein M of SARS-CoV Urbani” value [2] of the same sequence?
A: 0.7

Q: What about the “Binding of serum 1a to looped/cyclic peptides of protein M of SARS-CoV Urbani” value [2] of the same sequence?
A: 0.8

Q: And the “Binding of serum 1b to linear peptides of protein M of SARS-CoV Urbani” value [2]?
A: 0.6

Q: What about the “Binding of serum 1b to looped/cyclic peptides of protein M of SARS-CoV Urbani” value [2] of the same sequence?
A: 0.4

Q: And the “Binding of serum 2 to linear peptides of protein M of SARS-CoV Urbani” value [2]?
A: 0.7

Q: What about the “Binding of serum 2 to looped/cyclic peptides of protein M of SARS-CoV Urbani” value [2] of the same sequence?
A: 0.6

Q: What about the “Binding of serum 6 to linear peptides of protein M of SARS-CoV Urbani” value [2] of the same sequence?
A: 0.6

Q: And the “Binding of serum 6 to looped/cyclic peptides of protein M of SARS-CoV Urbani” value [2]?
A: 1.1

Q: And the “Binding of serum 37 to linear peptides of protein M of SARS-CoV Urbani” value [2]?
A: 0.8

Q: What about the “Binding of serum 37 to looped/cyclic peptides of protein M of SARS-CoV Urbani” value [2] of the same sequence?
A: 0.5

Q: And the “Binding of serum 62 to linear peptides of protein M of SARS-CoV Urbani” value [2]?
A: 0.8

Q: And the “Binding of serum 62 to looped/cyclic peptides of protein M of SARS-CoV Urbani” value [2]?
A: 0.5

Q: What about the “Binding of serum London to linear peptides of protein M of SARS-CoV Urbani” value [2] of the same sequence?
A: 0.4

Q: And the “Binding of serum London to looped/cyclic peptides of protein M of SARS-CoV Urbani” value [2]?
A: 0.3

Q: What about the “Binding of serum SARS-green to linear peptides of protein M of SARS-CoV Urbani” value [2] of the same sequence?
A: 0.3

Q: What about the “Binding of serum SARS-green to looped/cyclic peptides of protein M of SARS-CoV Urbani” value [2] of the same sequence?
A: 0.4

Q: What about the “Binding of serum SARS-yellow to linear peptides of protein M of SARS-CoV Urbani” value [2] of the same sequence?
A: 0.1

Q: What about the “Binding of serum SARS-yellow to looped/cyclic peptides of protein M of SARS-CoV Urbani” value [2] of the same sequence?
A: 0.5

Q: What about the “Rabbit serum linear peptides” value [3] of the same sequence?
A: 0.8

Q: What about the “Rabbit serum looped peptides” value [3] of the same sequence?
A: 0.2

Q: Which results are given for RWQLALYKGFQFICN?
A: Binding of Control Serum Blood-Bank to Looped peptides [1]: 0.6; Binding of Control serum Blood-bank to linear peptides [1]: 0.6; Binding of Control serum LUMC to linear peptides [1]: 0.4; Binding of Control serum LUMC to looped peptides [1]: 0.6; Binding of serum 1a to linear peptides of protein X1 of SARS-CoV Urbani [2]: 0.7; Binding of serum 1a to looped/cyclic peptide (PEPSCAN-ELISA) [2]: 0.6; Binding of serum 1b to linear peptides of protein X1 of SARS-CoV Urbani [2]: 0.5; Binding of serum 1b to looped/cyclic peptide (PEPSCAN-ELISA) [2]: 0.4; Binding of serum 2 to linear peptides of protein X1 of SARS-CoV Urbani [2]: 0.5; Binding of serum 2 to looped/cyclic peptide (PEPSCAN-ELISA) [2]: 0.5; Binding of serum 6 to linear peptides of protein X1 of SARS-CoV Urbani [2]: 0.4; Binding of serum 6 to looped/cyclic peptide (PEPSCAN-ELISA) [2]: 0.9; Binding of serum 37 to linear peptides of protein X1 of SARS-CoV Urbani [2]: 0.6; Binding of serum 37 to looped/cyclic peptide (PEPSCAN-ELISA) [2]: 0.6; Binding of serum 62 to linear peptides of protein X1 of SARS-CoV Urbani [2]: 0.5; Binding of serum 62 to looped/cyclic peptide (PEPSCAN-ELISA) [2]: 0.6; Binding of serum London to linear peptides of protein X1 of SARS-CoV Urbani [2]: 0.3; Binding of serum London to looped/cyclic peptide (PEPSCAN-ELISA) [2]: 1.4; Binding of serum SARS-green to linear peptides of protein X1 of SARS-CoV Urbani [2]: 0.3; Binding of serum SARS-green to looped/cyclic peptide (PEPSCAN-ELISA) [2]: 0.3; Binding of serum SARS-yellow to linear peptides of protein X1 of SARS-CoV Urbani [2]: 0.2; Binding of serum SARS-yellow to looped/cyclic peptide (PEPSCAN-ELISA) [2]: 0.6; Binding of a rabbit serum to linear peptides [3]: 0.3; Binding of a rabbit serum to looped peptides [3]: 0.9
